The values that follow come from paper PMC5770468, “Cardiac glycoside/aglycones inhibit HIV-1 gene expression by a mechanism requiring MEK1/2-ERK1/2 signaling” (Scientific Reports, 2018).

Experiment [1] concerns HIV-1 (Gag) gene expression. The experiment is described as follows: HIV-1 (Gag) gene expression in HeLa rtTA-HIV-ΔMls cells, p24CA ELISA dose response. The experiment is classed as cell-based, HIV-1 (LAI). The protocol: Drug/compounds were tested for effects on HIV-1 gene expression using inducible Tet-ON HIV-1 cell lines [HeLa rtTA-HIV-ΔMls or rtTA-HIV(Gag-GFP)] containing a HIV-1 (LAI) provirus activatable by Dox or tetracycline transactivator (tTA)[69]. The rtTA-HIV-ΔMls provirus was modified and used as previously reported[9]–[11],[70]. The rtTA-HIV(Gag-GFP) provirus was generated by deletion of the PR and RT coding regions within pol and insertion of GFP to the 3′ of gag, creating GFP fused to the C-terminal of Gag. After 4 h of drug/compound treatment, HIV-1 gene expression was activated with Dox (2 μg/mL) or tTA (described below). Equal concentrations of DMSO were present in each experiment. After ~20 h, cells and media were harvested to monitor the effects of drug/compound treatments as described below. HIV-1 gene expression was quantified via p24^CA ELISA or monitoring Gag-GFP fluorescence in cells as described below. In parallel, cell viability of treatments were assessed by XTT assay (Sigma-Aldrich, #TOX2).
Drug/compounds were purchased from Sigma (Digoxin, #D6003; Digitoxin, #D5878; Digoxigenin, #D9026; Digitoxigenin, #D9404; Ouabain, #O3125; Bufalin, #S961175; Cinobufagin, #C1272; and Anisomycin, #A9789) and derivatives of convallatoxin were synthesized from C. Lingwood’s lab of the Hospital for Sick Children (convallatoxin, peruvoside, RIDK-34, -36, -20, -21, -27, and -28). […] Recombinant human EGF was from Invitrogen (#PHG0314). Chemical structures were drawn in ChemSketch (ACD/Labs).
To monitor HIV-1 gene expression or replication, Gag release into cell culture supernatants were assayed by ELISA using a p24^CA antigen capture assay kit (AIDS & Cancer Virus Program, NCI-Frederick, Frederick, MD USA). Media harvested from HIV clinical isolates were diluted ~10 fold (or as necessary) prior to performing this assay. For analysis of HIV-1 and SR protein expression (and phosphorylation states with calf intestinal alkaline phosphatase treatments), cells were lysed and analyzed by western blot as previously outlined. Phosphatase inhibitors (e.g. 10 mM sodium fluoride, 2 mM sodium orthovanadate) were added to solutions requiring phospho protein analyses. An anti-chicken NKA antibody (α6F, #a6F–c, Developmental Studies Hybridoma Bank, The University of Iowa, contributed by Douglas M. Fambrough, The Johns Hopkins University) was used as specified to detect NKA α1- and β1-subunits across species. […] Activation of MAPKs was determined by western blot quantitation and calculation of phospho/total protein levels. […] Images were exported as TIF files for assembly, rotation, and equal brightness/contrast adjustments in ImageJ or Microsoft Powerpoint. Some lanes were cropped and rearranged from the same blot/gel as indicated. In representative gel/blot sets, samples were electrophoresed from the same experiment as controls, resolved simultaneously on identically cast gel(s), transferred to same PVDF (by either wet electrophoretic or by Bio-Rad Trans-Blot® Turbo Transfer System), and detected at same time. Marked locations of molecular weight (MW) standards are shown on the left as a reference. […] SUnSET analysis of total cellular protein synthesis. HeLa rtTA-HIV-ΔMls cells were cultured in the presence/absence of compound and pathway inhibitor (if any) and Dox induced for ~24 h as already described, then treated with puromycin (10 μg/mL, Sigma-Aldrich, #P8833) for 30 min to label nascent proteins prior to harvest. As control, 10 µM of cycloheximide (Sigma-Aldrich, #C4849) was added to some cells prior to puromycin treatment. Cells were subsequently washed, whole cell lysates prepared, and proteins quantified by western blot using an anti-puromycin antibody (EMD Millipore, #anti-12D10) as described above. Transfection of plasmid DNA into cells.
(In an ELISA, binding on a coated surface is turned into a signal by an enzyme label.)

The subject of another experiment is HIV-1 US RNAs. The experiment is described as follows: FISH localization of HIV-1 US RNA in HeLa rtTA-HIV(Gag-GFP) cells. It is filed as cell-based. To be noted: ~IC90s of CSs. From the text: Figure 4 CSs suppress HIV-1 gene expression by altering viral RNA processing. […] (a,b) CSs induce oversplicing of HIV-1 RNAs (n ≥ 3, mean, s.e.m.). (a) Diagram of the primer positions (arrow heads) used for qRT-PCR. (b) Graph of the relative amount of US (black), SS (white), and MS (gray) HIV-1 RNAs in cells treated with various CSs. (c) Nuclear export of HIV-1 US RNAs in cells is altered by CSs (representative n ≥ 4). HIV-1 US RNAs were localized by FISH after treating HeLa rtTA-HIV(Gag-GFP) cells as described above but with ~IC90s of CSs. Nuclei were stained by DAPI and images captured at 630 × magnification. (d) CSs induce differential post-translational modification of SR proteins (representative n ≥ 3). SRp20, Tra2β, and tubulin were analyzed by immunoblot of HeLa rtTA-HIV-ΔMls cells treated as described above except cells of this representative blot were treated 3 d with ~IC50s of CSs. (g) Lanes were cropped and assembled from the same gel/blot per box (Supplementary Fig. S4d).
RNA was extracted from cells, reverse transcribed, and resulting cDNAs subject to qRT-PCR quantification of HIV-1 mRNAs as previously described except reactions used iTaq™ Universal SYBR® Green Supermix (Bio-Rad, #172-5120) run on a Bio-Rad CFX384 Touch™ Real-Time PCR Detection System and analyzed with CFX Manager™[9]. NKA α1, 2, and 3 subunits were detected by published primers, amplified by iTaq using the same cycling temperature and times previously described for HIV-1 US/MS cDNAs except α1, 2, and 3 annealing temperatures were 61 °C[9],[73]. All data was normalized to β-actin as internal loading control. Primers sequences for NKA α subunits were as follows: α1 forward (5′-[…] -3′), α1 reverse (5′- […] -3′), α2 forward (5′-[…]-3′), α2 reverse (5′-[…]-3′), α3 forward (5′-[…]-3′), and α3 reverse (5′-GGGCAGACTCAGACGCATC-3′). Monitoring the subcellular localization of HIV-1 genomic RNA. HeLa rtTA-HIV(Gag-GFP) cells were seeded on cover slips, treated with drug/compound, and processed for FISH to detect HIV-1 US RNAs using Stellaris™ probes (Biosearch Technologies) as previously detailed[10],[11].

The next experiment deals with HeLa rtTA-HIV-ΔMls cells. The experiment is described as follows: In vitro therapeutic index (CC20/IC50) in HeLa rtTA-HIV-ΔMls cells. It is filed as cell-based, human. The text has this: Without median toxic dose (TD50) and half-maximal effective concentration (EC50) data available to calculate TIs (in vivo) from HIV patients treated with CSs, we determined the following TIs for each cell type treated with a CS (summarized in Supplementary Table S1): in vitro TIs from HeLa rtTA-HIV-ΔMls cells using CC20/IC50 (instead of CC50/IC50), in vitro TIs from 24ST1NLESG cells using CC50/IC50, and ex vivo TIs from HIV-infected PBMCs using CC50/IC50 (at day 14 of culture approximated from available cell viability trends for CC50s of Supplementary Fig. S13 and inferred near maximal IC50s).
Supplementary Table S1. Comparison of the in vitro (IVTI) and ex vivo therapeutic indices (EVTIs) of CSs and their impact on the expression of essential HIV-1 proteins.
Notes: data for CC20, CC50, and IC50s for each drug/compound were estimated from dose response curves in Figures 1-2, Supplementary Table S1, Supplementary Figures S2, S5, and S13, and Wong et al.
">" means the estimate has not been accurately determined but is greater than the highest concentration […]
"( )" indicates preliminary data that was not shown. aCC20 instead of CC50 was estimated from dose response curves and used for calculation of IVTIs. bCells were treated at ~IC90of a CS.
(1 picture or pasted object on this page, not shown here)

Read-outs that look alike come from different tables or passages of the source.

`C[C@]12CC[C@H](O)C[C@H]1CC[C@@H]1[C@@H]2CC[C@]2(C)[C@@H](c3ccc(=O)oc3)CC[C@]12O` [Bufalin]: in experiment [1], the “IC50 lower for HIV-1 inhibition compared to digoxin” value turned out to be 9 fold. The “better anti-HIV-1 activity than digoxin” value in experiment [1] amounted to 9 fold. Also, the IC50 in experiment [1] (Human immunodeficiency virus 1, HeLa, read-out: IC50 (nM) HeLa rtTA-HIV-ΔMls) was determined as 5 nM. The IC90 in experiment [1] (Human immunodeficiency virus 1, HeLa, read-out: IC90, HIV-1 (Gag) gene expression) is 15 nM; in experiment [1] (Human immunodeficiency virus 1, HeLa, read-out: ~IC90 (approximate concentration used in experiments)) it was approximately 15 nM. The IC80 in experiment [1] (Human immunodeficiency virus 1, HeLa, read-out: ~IC80 (approximate concentration used in experiments)) was approximately 11 nM. Also, in the experiment on HIV-1 US RNAs, the “HIV-1 US RNA subcellular localization” value is “almost exclusively within the nucleus”. Besides, in the experiment with HeLa rtTA-HIV-ΔMls cells, the “better in vitro TI than digoxin” value came out at 9 fold.

In general, IC50 refers to the midpoint of a concentration-inhibition curve.
